Consider 16 compounds from ChEMBL document CHEMBL4354803, “Synthesis and biological activity of structurally diverse phthalazine derivatives: A systematic review” (Bioorg Med Chem, 2019).

For one test, the system named is MDA-MB-468. The experiment in a line: Growth inhibition of human MDA-MB-468 cells after 7 days by CCK-8 method. It is filed as functional, cell-based. As to conditions: MDA-MB-468, 168 h.
Another test deals with CAPAN-1. The experiment in a line: Growth inhibition of human Capan1 cells after 7 days by CCK-8 method. It is filed as functional, cell-based. As to conditions: CAPAN-1, 168 h.
Test [1] concerns HepG2. The test can be described thus: Potency index, ratio of sorafenib IC50 to compound IC50 for cytotoxicity against human HepG2 cells by sulforhodamine B assay. It is filed as functional.
For test [2], the system named is HepG2. The experiment in a line: Potency index, ratio of doxorubicin IC50 to compound IC50 for cytotoxicity against human HepG2 cells by sulforhodamine B assay. The format is functional.
For test [3], the system named is MCF7. The test can be described thus: Cytotoxicity against human MCF7 cells. The format is functional. The note with it: read-out: LC50 (the source's name).
A further test addresses T1, Aurora kinase A (Homo sapiens, UniProt O14965).
T1 sequence (O14965 whole entry): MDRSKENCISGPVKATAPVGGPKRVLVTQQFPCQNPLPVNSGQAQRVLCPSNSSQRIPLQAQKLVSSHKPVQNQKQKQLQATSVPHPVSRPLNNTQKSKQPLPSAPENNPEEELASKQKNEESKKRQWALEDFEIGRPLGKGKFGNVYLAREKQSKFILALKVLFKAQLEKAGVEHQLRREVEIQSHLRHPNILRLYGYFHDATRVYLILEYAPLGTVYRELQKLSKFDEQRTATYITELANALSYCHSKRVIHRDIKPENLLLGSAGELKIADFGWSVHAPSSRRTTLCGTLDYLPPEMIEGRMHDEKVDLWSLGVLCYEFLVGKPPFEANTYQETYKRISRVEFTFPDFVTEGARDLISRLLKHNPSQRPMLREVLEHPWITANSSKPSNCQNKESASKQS
The experiment in a line: Inhibition of C-terminal His4-tagged Aurora A (unknown origin) using PKB-GSK2 biotinylated peptide as substrate incubated for 90 mins by ELISA.

The test system of the next test is HCT-116. The experiment in a line: Antiproliferative activity against human HCT116 cells after 5 days by CellTiter-Glo Luminescent Cell Viability Assay. It is filed as functional, cell-based. As to conditions: HCT-116, 120 h.
Test [4] has as its system Mus musculus. The test can be described thus: Antinociceptive activity in Balb/c mouse at 20 mg/kg, ip after 120 mins by tail flick test relative to control. The format is functional.
Test [5] concerns Mus musculus. The test can be described thus: Antinociceptive activity in Balb/c mouse at 20 mg/kg, ip after 180 mins by tail flick test relative to control. It is filed as functional.
The target of test [6] is Cystic fibrosis transmembrane conductance regulator (Homo sapiens, UniProt P13569, F508DEL/H148Q/I152L). The experiment in a line: Inhibition of human CFTR F508 deletion mutant expressed in rat FRT cells coexpressing YFP-H148Q/I152L 25,22 incubated for 60 to 120 mins in presence of forskolin by fluorescent method. The format is cell-based.
Test [7] in a line: Inhibition of PARP in human C41 cells assessed as reduction in protein accumulation preincubated for 30 mins followed by H2O2 addition and measured after 10 mins by FITC/DAPI-staining based fluorescence method. The format is cell-based.
Test [8] in a line: Inhibition of recombinant human PARP expressed in Escherichia coli in presence of NAD+ by microplate scintillation counting method.
For the next test, the system named is HUVEC. The experiment in a line: Induction of HUVEC proliferation incubated for 20 hrs followed by 3H thymidine incorporation and measured after 4 hrs by beta counting method. As to conditions: Homo sapiens. The format is functional, cell-based.
Test [9] in a line: Induction of mouse primary oligodendrocytes incubated for 16 to 24 hrs by WSTl reagent based assay. It is filed as functional.
Test [10] has as its system Mus musculus. The experiment in a line: Antidiabetic activity in C57BL/KsJ mouse assessed as maximum reduction in blood glucose level at 200 mg/kg, po administered for 9 days by spectrometric method relative to control. It is filed as functional. Set-up: scale not given: the % may be the effect or the level left.
The test system of test [11] is MCF7. The test can be described thus: cells. The note with it: Homo sapiens, MCF7, 24 h.
Description: Cytotoxicity against human MCF7 cells after 24 hrs by MTT assay
The subject of test [12] is HepG2. The experiment in a line: cells. The note with it: Homo sapiens, HepG2, 24 h.
Description: Cytotoxicity against human HepG2 cells after 24 hrs by MTT assay
The target of the next test is T2, Prostaglandin E synthase (Homo sapiens, UniProt O14684).
T2 sequence (O14684 whole entry): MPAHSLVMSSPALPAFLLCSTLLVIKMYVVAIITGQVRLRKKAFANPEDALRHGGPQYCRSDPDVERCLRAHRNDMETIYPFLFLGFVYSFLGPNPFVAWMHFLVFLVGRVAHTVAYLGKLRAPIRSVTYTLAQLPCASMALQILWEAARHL
The test can be described thus: Inhibition of mPGES-1 in human A549 cells assessed as reduction in […] induced PGE2 release preincubated for 30 mins followed by […] addition and measured after 16 to 20 hrs by HTRF assay. It is filed as cell-based.

The target of test [13] is T3, Poly [ADP-ribose] polymerase 1 (Homo sapiens, UniProt P09874). The experiment in a line: Inhibition of human PARP1 expressed in Escherichia coli using histone as substrate by ELISA.
In test [14] the target is T3, Poly [ADP-ribose] polymerase 1. The experiment in a line: Inhibition of N-terminal GST-tagged human PARP1 expressed in a Baculovirus infected Sf9 insect cells using biotinylated substrate incubated for 1 hr by colorimetric method.
The subject of test [15] is Mus musculus. The experiment in a line: Anticonvulsant activity in ip dosed Kunming mouse assessed as protection against 50 mA current-induced seizure measured after 0.5 hrs by maximal electroshock seizure test. It is filed as functional.
The subject of test [16] is Mus musculus. The experiment in a line: Potency index, ratio of valproate ED50 to compound ED50 for Anticonvulsant activity in ip dosed ICR mouse assessed as protection against 50 mA current-induced seizure pretreated for 30 mins followed by seizure induction measured for 60 mins by maximal electroshock seizure test. The format is functional.
The species named for test [17] is Mus musculus. The experiment in a line: animal or person. As to conditions: ICR, ip.
Test [18] addresses T3, Poly [ADP-ribose] polymerase 1. The experiment in a line: Inhibition of human PARP1 expressed in Escherichia coli incubated for 10 mins by colorimetric assay.

T3 sequence (P09874 whole entry): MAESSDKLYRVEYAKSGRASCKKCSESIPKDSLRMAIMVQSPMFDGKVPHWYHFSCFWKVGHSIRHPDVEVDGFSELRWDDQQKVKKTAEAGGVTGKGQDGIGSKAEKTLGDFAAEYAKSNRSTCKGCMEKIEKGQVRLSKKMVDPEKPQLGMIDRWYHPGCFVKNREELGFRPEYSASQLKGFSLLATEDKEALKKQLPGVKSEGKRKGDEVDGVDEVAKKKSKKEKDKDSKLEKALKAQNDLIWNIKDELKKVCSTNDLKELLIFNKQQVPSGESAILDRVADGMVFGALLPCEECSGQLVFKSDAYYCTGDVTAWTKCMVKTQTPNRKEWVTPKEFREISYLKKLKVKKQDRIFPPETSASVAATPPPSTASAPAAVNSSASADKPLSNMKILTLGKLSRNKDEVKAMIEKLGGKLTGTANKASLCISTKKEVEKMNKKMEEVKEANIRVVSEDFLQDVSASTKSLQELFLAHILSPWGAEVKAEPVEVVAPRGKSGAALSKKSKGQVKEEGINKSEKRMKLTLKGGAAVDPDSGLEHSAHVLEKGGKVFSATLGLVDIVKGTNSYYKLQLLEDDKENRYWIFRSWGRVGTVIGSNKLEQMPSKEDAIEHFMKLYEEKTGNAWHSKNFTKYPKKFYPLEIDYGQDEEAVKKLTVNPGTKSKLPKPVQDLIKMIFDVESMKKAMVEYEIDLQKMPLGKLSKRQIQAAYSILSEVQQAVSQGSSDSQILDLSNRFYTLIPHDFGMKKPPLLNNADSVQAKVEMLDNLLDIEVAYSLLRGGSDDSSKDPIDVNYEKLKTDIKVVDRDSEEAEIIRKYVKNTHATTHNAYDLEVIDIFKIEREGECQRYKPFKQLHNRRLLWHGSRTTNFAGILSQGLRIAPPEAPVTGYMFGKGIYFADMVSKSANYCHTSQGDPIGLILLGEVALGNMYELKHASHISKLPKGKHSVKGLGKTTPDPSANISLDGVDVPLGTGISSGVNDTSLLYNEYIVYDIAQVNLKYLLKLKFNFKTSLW
Sequence of Cystic fibrosis transmembrane conductance regulator (P13569 whole entry, looked up, stated change not applied): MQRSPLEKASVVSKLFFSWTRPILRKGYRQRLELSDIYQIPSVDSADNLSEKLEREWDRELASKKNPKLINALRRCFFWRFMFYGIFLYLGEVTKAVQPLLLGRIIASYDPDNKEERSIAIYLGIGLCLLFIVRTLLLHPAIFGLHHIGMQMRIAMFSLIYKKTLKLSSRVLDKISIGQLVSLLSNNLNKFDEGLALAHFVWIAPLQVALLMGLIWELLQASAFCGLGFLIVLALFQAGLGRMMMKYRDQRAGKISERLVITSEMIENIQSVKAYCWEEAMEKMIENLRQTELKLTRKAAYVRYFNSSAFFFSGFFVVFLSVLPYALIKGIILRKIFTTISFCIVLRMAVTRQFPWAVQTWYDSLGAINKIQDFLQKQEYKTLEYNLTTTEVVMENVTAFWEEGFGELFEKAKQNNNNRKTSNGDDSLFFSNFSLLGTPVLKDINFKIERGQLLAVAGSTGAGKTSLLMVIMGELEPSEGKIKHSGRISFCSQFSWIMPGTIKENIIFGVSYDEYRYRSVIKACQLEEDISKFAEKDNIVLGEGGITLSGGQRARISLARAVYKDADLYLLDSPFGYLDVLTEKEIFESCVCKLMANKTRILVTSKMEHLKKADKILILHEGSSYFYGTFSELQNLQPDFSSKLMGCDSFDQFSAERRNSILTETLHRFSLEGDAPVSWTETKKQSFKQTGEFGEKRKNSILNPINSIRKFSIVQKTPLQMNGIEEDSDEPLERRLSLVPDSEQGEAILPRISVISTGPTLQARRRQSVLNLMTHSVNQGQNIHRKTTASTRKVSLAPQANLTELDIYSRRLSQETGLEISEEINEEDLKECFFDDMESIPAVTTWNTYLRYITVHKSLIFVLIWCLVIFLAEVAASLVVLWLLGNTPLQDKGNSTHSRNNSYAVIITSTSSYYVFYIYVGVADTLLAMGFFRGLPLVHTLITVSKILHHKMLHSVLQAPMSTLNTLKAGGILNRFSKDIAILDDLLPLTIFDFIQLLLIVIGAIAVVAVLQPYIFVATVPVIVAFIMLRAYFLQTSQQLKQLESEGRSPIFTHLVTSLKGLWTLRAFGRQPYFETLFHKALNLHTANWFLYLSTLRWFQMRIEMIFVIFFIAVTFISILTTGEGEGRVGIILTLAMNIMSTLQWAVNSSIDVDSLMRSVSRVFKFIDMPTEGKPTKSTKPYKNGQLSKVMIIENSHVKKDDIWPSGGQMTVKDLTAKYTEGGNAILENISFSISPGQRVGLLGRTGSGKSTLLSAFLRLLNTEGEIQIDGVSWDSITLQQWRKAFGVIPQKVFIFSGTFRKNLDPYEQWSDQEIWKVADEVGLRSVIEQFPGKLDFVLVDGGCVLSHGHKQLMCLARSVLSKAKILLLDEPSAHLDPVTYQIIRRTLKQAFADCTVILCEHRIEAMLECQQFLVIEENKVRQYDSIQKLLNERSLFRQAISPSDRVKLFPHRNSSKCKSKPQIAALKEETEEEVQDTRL

On to `O=C(c1cc(Cc2n[nH]c(=O)c3ccccc23)ccc1F)N1CCn2c(nnc2C(F)F)C1`, for which the IC50 with MDA-MB-468 and in the test with CAPAN-1 was 0.003 nM in each case.

For the compound `O=C(Cn1nc(Cc2ccccc2)c2ccccc2c1=O)Nc1ccccc1Cl`, the “Ratio IC50” value in the test with HepG2 [1] and with HepG2 [2] was 2.9 throughout.

In the case of `CC(S)C[C@H](NC(=O)Cn1ncc2ccccc2c1=O)C(N)=O` (some centres undefined), the CC50 with MCF7 [3] is 20300 nM.

On to `Cc1cc(Nc2nn(C(C)C)c(=O)c3cc(OCCN4CCOCC4)ccc23)n[nH]1`, for which the IC50 was determined as 420 nM at Aurora kinase A and 7 nM with HCT-116.

On to `CN(C)CCn1nc(-c2ccncc2)c2ccccc2c1=O`, for which the values for the MPE in the test with Mus musculus [4] and with Mus musculus [5] were 14.84% and 18.26%, respectively.

In the case of `Cc1nc2ccc(N(C)C(=O)Cn3nc(-c4cccc(Cl)c4)c4ccccc4c3=O)cc2o1`, the EC50 in [6] was under 10000 nM.

For the compound `O=C(c1cc(Cc2n[nH]c(=O)c3ccccc23)ccc1F)N1CCN(c2ncccn2)CC1`, the EC50 in test [7] is 0.7 nM. Also, the IC50 in [8] was 0.7 nM.

On to `O=c1[nH]nc(-c2ccc(N3CCCCCC3)c([N+](=O)[O-])c2)c2ccccc12`, for which the figures for the half-maximal effective concentration (EC50) (in the test on HUVEC; in test [9]) were 2500 nM and 200 nM, respectively.

Consider `Cc1nn(CCOc2ccc(CC3SC(=O)NC3=O)cc2)c(=O)c2ccccc12` (centres undefined), for which the Activity result in the test with Mus musculus [10] was “<=61%”.

On to `O=c1c2ccccc2c(Cc2ccccc2)nn1CC(=S)NNS(=O)(=O)c1ccccc1`, for which the values for the IC50 in the test with MCF7 [11] and in the test on HepG2 [12] were 19800 nM and 22200 nM, respectively.

Regarding `O=C(Nc1ccc2cnn(-c3ccc(Br)cc3)c(=O)c2c1)c1c(F)cccc1Cl`, the IC50 on Prostaglandin E synthase was under 50 nM.

`CCN1CCCC2CN(C(=O)c3cc(Cc4n[nH]c(=O)c5ccccc45)ccc3F)CC21` (centres undefined) displayed an IC50 in test [13] of 2 nM.

For the compound `O=C(CCCn1nc(-c2ccccc2)c2ccccc2c1=O)Nc1cccc(Cl)c1`, the IC50 in test [14] worked out at 97 nM.

For `FC(F)(F)c1cccc(COc2nn3cnnc3c3ccccc23)c1`, the ED50 with Mus musculus [15] came to 9.3 mg/kg.

Take `COC(=O)CSc1nnc(Cn2[nH]c(=O)c3ccccc3c2=O)o1`: the “Ratio ED50” value in the test on Mus musculus [16] is 10. This compound registered an ED50 in the test filed under Mus musculus [17] of 172 µmol/kg.

For the compound `O=C(c1cc(Cc2n[nH]c(=O)c3ccccc23)ccc1F)N1CCn2c(nnc2C2CC2)C1`, the IC50 in [18] was determined as 8.41 nM.
